Measured values as given in patent US20240158446A1, “CYCLIC COMPOUND HAVING SELECTIVE INHIBITORY ACTION ON KRAS OVER HRAS AND NRAS” (CHUGAI SEIYAKU KABUSHIKI KAISHA, priority 2021, published 2024).
*1 amine or outer side, *2 acyl side, *3 side chain or, on linkers, in order; H or OH if unused. Where a SMILES comes first, the peptide text is derived from it. Bridges are numbered along the chain shown (N, C = ends). [ ]: non-standard residue; d: D form. The star is where a group is joined. hPhe(3-Cl-4-CF3) = N[C@@H](CCc1ccc(C(F)(F)F)c(Cl)c1)C(=O)O; NPrPhe(4-CF3) = CCCN[C@@H](Cc1ccc(C(F)(F)F)cc1)C(=O)O; NEtPhe(4-CF3) = CCN[C@@H](Cc1ccc(C(F)(F)F)cc1)C(=O)O; X9 = CCCN([C@@H](Cc1ccc(F)cc1)C(=O)[*:2])[*:1]; X43 = CCCN([C@@H](Cc1ccccc1)C(=O)[*:2])[*:1]; NEtPhe(4-F) = CCN[C@@H](Cc1ccc(F)cc1)C(=O)O; NMePhe(4-F) = CN[C@@H](Cc1ccc(F)cc1)C(=O)O; NMeGly(cPent) = CN[C@H](C(=O)O)C1CCCC1; Pro(4,4-F2) = O=C(O)[C@@H]1CC(F)(F)CN1; NEtPhe = CCN[C@@H](Cc1ccccc1)C(=O)O; NMeD = CN[C@@H](CC(=O)O)C(=O)O; NMeL = CN[C@@H](CC(C)C)C(=O)O; Morpholide = C1CN(*)CCO1; NMeA = CN[C@@H](C)C(=O)O; Ac5c = NC1(C(=O)O)CCCC1; Aze = O=C(O)[C@@H]1CCN1; Ac4c = NC1(C(=O)O)CCC1; Ac3c = NC1(C(=O)O)CC1; Sar = CNCC(=O)O

Assays:
[1] = biological target: GDP-bound NRAS wild-type protein (Homo sapiens, UniProt P01111); test: Binding to NRAS by surface plasmon resonance (SPR), Single Cycle Kinetics; details: SPR, GDP-bound NRAS wild-type protein vs GDP-bound KRAS wild-type protein
[2] = biological target: GDP-bound HRAS wild-type protein (Homo sapiens, UniProt P01112); test: Binding to HRAS by surface plasmon resonance (SPR), Single Cycle Kinetics; details: SPR, GDP-bound HRAS wild-type protein vs GDP-bound KRAS wild-type protein
[3] = biological target: GDP-bound KRAS wild-type protein (Homo sapiens, UniProt P01116); test: Binding to KRAS by surface plasmon resonance (SPR), Single Cycle Kinetics; details: SPR Single Cycle Kinetics, GDP-bound KRAS wild-type protein, 1:1 binding model; read-out: KRAS KD
Sequence of GDP-bound KRAS wild-type protein (P01116 whole entry): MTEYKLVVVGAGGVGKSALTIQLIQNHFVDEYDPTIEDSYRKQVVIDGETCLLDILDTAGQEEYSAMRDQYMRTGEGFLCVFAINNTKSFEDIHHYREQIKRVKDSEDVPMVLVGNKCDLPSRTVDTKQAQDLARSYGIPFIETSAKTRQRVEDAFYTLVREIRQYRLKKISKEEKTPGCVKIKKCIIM

Sequence of GDP-bound NRAS wild-type protein (P01111 whole entry): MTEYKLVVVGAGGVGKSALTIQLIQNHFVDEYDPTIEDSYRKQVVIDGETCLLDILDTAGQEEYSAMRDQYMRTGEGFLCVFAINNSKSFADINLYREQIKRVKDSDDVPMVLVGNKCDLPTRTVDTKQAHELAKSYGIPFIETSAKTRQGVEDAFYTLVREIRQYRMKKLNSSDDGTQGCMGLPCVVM
Sequence of GDP-bound HRAS wild-type protein (P01112 whole entry): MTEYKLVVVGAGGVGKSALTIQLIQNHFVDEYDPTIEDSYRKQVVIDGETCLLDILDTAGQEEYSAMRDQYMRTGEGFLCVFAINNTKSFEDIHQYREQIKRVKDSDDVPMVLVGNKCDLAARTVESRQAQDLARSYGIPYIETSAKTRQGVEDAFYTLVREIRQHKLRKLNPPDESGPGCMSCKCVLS

SMILES	NRAS/KRAS (ratio of KD value for NRAS to KD value for KRAS) [1]	HRAS/KRAS (ratio of KD value for HRAS to KD value for KRAS) [2]	Kd [3]
CCCN1C(=O)[C@@H]2CCN2C(=O)[C@H](C)N(C)C(=O)[C@H]([C@@H](C)CC)NC(=O)[C@H](CC(C)C)N(C)C(=O)C[C@@H](C(=O)N2CCOCC2)N(C)C(=O)[C@H](C2CCCC2)N(C)C(=O)C2(CCC2)NC(=O)[C@@H]2CC(F)(F)CN2C(=O)[C@H](CCc2ccc(C(F)(F)F)c(Cl)c2)NC(=O)CN(C)C(=O)[C@@H]1Cc1ccc(C(F)(F)F)cc1 [PP0208] ([NMeL]I[NMeA][Aze][NPrPhe(4-CF3)][Sar][hPhe(3-Cl-4-CF3)][Pro(4,4-F2)][Ac4c][NMeGly(cPent)][NMeD]-Morpholide; lactam N-11)	C (A compound having a KD ratio of 0.1 or more and less than 3 is denoted as C)	C (A compound having a KD ratio of 0.1 or more and less than 3 is denoted as C)	0.26 nM
CC[C@H](C)[C@@H]1NC(=O)[C@H](CC(C)C)N(C)C(=O)C[C@@H](C(=O)N2CCOCC2)N(C)C(=O)[C@H](C2CCCC2)N(C)C(=O)C2(CCCC2)NC(=O)[C@@H]2CCCN2C(=O)[C@H](CCc2ccc(C(F)(F)F)c(Cl)c2)NC(=O)CN(C)C(=O)[C@H](Cc2ccccc2)N(CC)C(=O)CN(C)C(=O)CN(C)C1=O [PP0210] ([NMeL]I[Sar][Sar][NEtPhe][Sar][hPhe(3-Cl-4-CF3)]P[Ac5c][NMeGly(cPent)][NMeD]-Morpholide; lactam N-11)	C (A compound having a KD ratio of 0.1 or more and less than 3 is denoted as C)	C (A compound having a KD ratio of 0.1 or more and less than 3 is denoted as C)	0.52 nM
CCCN1C(=O)CN(C)C(=O)CN(C)C(=O)[C@H]([C@@H](C)CC)NC(=O)[C@H](CC(C)C)N(C)C(=O)C[C@@H](C(=O)N2CCOCC2)N(C)C(=O)[C@H](C2CCCC2)N(C)C(=O)C2(CCCC2)NC(=O)[C@@H]2CCCN2C(=O)[C@H](CCc2ccc(C(F)(F)F)c(Cl)c2)NC(=O)CN(C)C(=O)[C@@H]1Cc1ccccc1 [PP0211] ([NMeL]I[Sar][Sar][X43][Sar][hPhe(3-Cl-4-CF3)]P[Ac5c][NMeGly(cPent)][NMeD]-Morpholide; lactam N-11)	B (a compound having 3 or more and less than 10 is denoted as B)	C (A compound having a KD ratio of 0.1 or more and less than 3 is denoted as C)	0.27 nM
CC[C@H](C)[C@@H]1NC(=O)[C@H](CC(C)C)N(C)C(=O)C[C@@H](C(=O)N2CCOCC2)N(C)C(=O)[C@H](C2CCCC2)N(C)C(=O)C2(CCCC2)NC(=O)[C@@H]2CCCN2C(=O)[C@H](CCc2ccc(C(F)(F)F)c(Cl)c2)NC(=O)CN(C)C(=O)[C@H](Cc2ccc(F)cc2)N(C)C(=O)CN(C)C(=O)CN(C)C1=O [PP0212] ([NMeL]I[Sar][Sar][NMePhe(4-F)][Sar][hPhe(3-Cl-4-CF3)]P[Ac5c][NMeGly(cPent)][NMeD]-Morpholide; lactam N-11)	C (A compound having a KD ratio of 0.1 or more and less than 3 is denoted as C)	C (A compound having a KD ratio of 0.1 or more and less than 3 is denoted as C)	0.098 nM
CC[C@H](C)[C@@H]1NC(=O)[C@H](CC(C)C)N(C)C(=O)C[C@@H](C(=O)N2CCOCC2)N(C)C(=O)[C@H](C2CCCC2)N(C)C(=O)C2(CCCC2)NC(=O)[C@@H]2CCCN2C(=O)[C@H](CCc2ccc(C(F)(F)F)c(Cl)c2)NC(=O)CN(C)C(=O)[C@H](Cc2ccc(F)cc2)N(CC)C(=O)CN(C)C(=O)CN(C)C1=O [PP0213] ([NMeL]I[Sar][Sar][NEtPhe(4-F)][Sar][hPhe(3-Cl-4-CF3)]P[Ac5c][NMeGly(cPent)][NMeD]-Morpholide; lactam N-11)	C (A compound having a KD ratio of 0.1 or more and less than 3 is denoted as C)	C (A compound having a KD ratio of 0.1 or more and less than 3 is denoted as C)	0.25 nM
CCCN1C(=O)CN(C)C(=O)CN(C)C(=O)[C@H]([C@@H](C)CC)NC(=O)[C@H](CC(C)C)N(C)C(=O)C[C@@H](C(=O)N2CCOCC2)N(C)C(=O)[C@H](C2CCCC2)N(C)C(=O)C2(CCCC2)NC(=O)[C@@H]2CCCN2C(=O)[C@H](CCc2ccc(C(F)(F)F)c(Cl)c2)NC(=O)CN(C)C(=O)[C@@H]1Cc1ccc(F)cc1 [PP0214] ([NMeL]I[Sar][Sar][X9][Sar][hPhe(3-Cl-4-CF3)]P[Ac5c][NMeGly(cPent)][NMeD]-Morpholide; lactam N-11)	B (a compound having 3 or more and less than 10 is denoted as B)	C (A compound having a KD ratio of 0.1 or more and less than 3 is denoted as C)	0.13 nM
CC[C@H](C)[C@@H]1NC(=O)[C@H](CC(C)C)N(C)C(=O)C[C@@H](C(=O)N2CCOCC2)N(C)C(=O)[C@H](C2CCCC2)N(C)C(=O)C2(CCCC2)NC(=O)[C@@H]2CCCN2C(=O)[C@H](CCc2ccc(C(F)(F)F)c(Cl)c2)NC(=O)CN(C)C(=O)[C@H](Cc2ccccc2)N(CC)C(=O)[C@@H]2CCN2C(=O)[C@H](C)N(C)C1=O [PP0215] ([NMeL]I[NMeA][Aze][NEtPhe][Sar][hPhe(3-Cl-4-CF3)]P[Ac5c][NMeGly(cPent)][NMeD]-Morpholide; lactam N-11)	C (A compound having a KD ratio of 0.1 or more and less than 3 is denoted as C)	C (A compound having a KD ratio of 0.1 or more and less than 3 is denoted as C)	0.41 nM
CCCN1C(=O)[C@@H]2CCN2C(=O)[C@H](C)N(C)C(=O)[C@H]([C@@H](C)CC)NC(=O)[C@H](CC(C)C)N(C)C(=O)C[C@@H](C(=O)N2CCOCC2)N(C)C(=O)[C@H](C2CCCC2)N(C)C(=O)C2(CCCC2)NC(=O)[C@@H]2CCCN2C(=O)[C@H](CCc2ccc(C(F)(F)F)c(Cl)c2)NC(=O)CN(C)C(=O)[C@@H]1Cc1ccccc1 [PP0216] ([NMeL]I[NMeA][Aze][X43][Sar][hPhe(3-Cl-4-CF3)]P[Ac5c][NMeGly(cPent)][NMeD]-Morpholide; lactam N-11)	C (A compound having a KD ratio of 0.1 or more and less than 3 is denoted as C)	B (a compound having 3 or more and less than 10 is denoted as B)	0.28 nM
CC[C@H](C)[C@@H]1NC(=O)[C@H](CC(C)C)N(C)C(=O)C[C@@H](C(=O)N2CCOCC2)N(C)C(=O)[C@H](C2CCCC2)N(C)C(=O)C2(CCCC2)NC(=O)[C@@H]2CCCN2C(=O)[C@H](CCc2ccc(C(F)(F)F)c(Cl)c2)NC(=O)CN(C)C(=O)[C@H](Cc2ccc(F)cc2)N(C)C(=O)[C@@H]2CCN2C(=O)[C@H](C)N(C)C1=O [PP0217] ([NMeL]I[NMeA][Aze][NMePhe(4-F)][Sar][hPhe(3-Cl-4-CF3)]P[Ac5c][NMeGly(cPent)][NMeD]-Morpholide; lactam N-11)	C (A compound having a KD ratio of 0.1 or more and less than 3 is denoted as C)	C (A compound having a KD ratio of 0.1 or more and less than 3 is denoted as C)	0.18 nM
CC[C@H](C)[C@@H]1NC(=O)[C@H](CC(C)C)N(C)C(=O)C[C@@H](C(=O)N2CCOCC2)N(C)C(=O)[C@H](C2CCCC2)N(C)C(=O)C2(CCCC2)NC(=O)[C@@H]2CCCN2C(=O)[C@H](CCc2ccc(C(F)(F)F)c(Cl)c2)NC(=O)CN(C)C(=O)[C@H](Cc2ccc(F)cc2)N(CC)C(=O)[C@@H]2CCN2C(=O)[C@H](C)N(C)C1=O [PP0218] ([NMeL]I[NMeA][Aze][NEtPhe(4-F)][Sar][hPhe(3-Cl-4-CF3)]P[Ac5c][NMeGly(cPent)][NMeD]-Morpholide; lactam N-11)	C (A compound having a KD ratio of 0.1 or more and less than 3 is denoted as C)	C (A compound having a KD ratio of 0.1 or more and less than 3 is denoted as C)	0.2 nM
CCCN1C(=O)[C@@H]2CCN2C(=O)[C@H](C)N(C)C(=O)[C@H]([C@@H](C)CC)NC(=O)[C@H](CC(C)C)N(C)C(=O)C[C@@H](C(=O)N2CCOCC2)N(C)C(=O)[C@H](C2CCCC2)N(C)C(=O)C2(CCCC2)NC(=O)[C@@H]2CCCN2C(=O)[C@H](CCc2ccc(C(F)(F)F)c(Cl)c2)NC(=O)CN(C)C(=O)[C@@H]1Cc1ccc(F)cc1 [PP0219] ([NMeL]I[NMeA][Aze][X9][Sar][hPhe(3-Cl-4-CF3)]P[Ac5c][NMeGly(cPent)][NMeD]-Morpholide; lactam N-11)	C (A compound having a KD ratio of 0.1 or more and less than 3 is denoted as C)	B (a compound having 3 or more and less than 10 is denoted as B)	0.13 nM
CC[C@H](C)[C@@H]1NC(=O)[C@H](CC(C)C)N(C)C(=O)C[C@@H](C(=O)N2CCOCC2)N(C)C(=O)[C@H](C2CCCC2)N(C)C(=O)C2(CC2)NC(=O)[C@@H]2CCCN2C(=O)[C@H](CCc2ccc(C(F)(F)F)c(Cl)c2)NC(=O)CN(C)C(=O)[C@H](Cc2ccc(C(F)(F)F)cc2)N(CC)C(=O)[C@@H]2CCN2C(=O)[C@H](C)N(C)C1=O [PP0220] ([NMeL]I[NMeA][Aze][NEtPhe(4-CF3)][Sar][hPhe(3-Cl-4-CF3)]P[Ac3c][NMeGly(cPent)][NMeD]-Morpholide; lactam N-11)	C (A compound having a KD ratio of 0.1 or more and less than 3 is denoted as C)	C (A compound having a KD ratio of 0.1 or more and less than 3 is denoted as C)	0.35 nM
